# Results published in US12630492B2, “Cannabinoid derivatives” (CANOPY GROWTH CORPORATION, priority 2019, dated 2026).
# Like-named read-outs stand apart in the source and are kept apart here.
# Tests used:
# [1] = target: T1, human CB2 receptor (Homo sapiens, UniProt P34972); test: CB2 radioligand competitive binding assay ([3H]CP 55,940 displacement); conditions: for Selectivity CB2: fold difference between CB1 and CB2 binding, printed in column of receptor with higher affinity, 1.00 in both = same affinity
# T1 construct: host or cells: CHO-K1 (Chinese hamster ovary) cells, stably transfected; membranes prepared in house
# [2] = target: T2, human CB1 receptor (Homo sapiens, UniProt P21554); test: CB1 radioligand competitive binding assay ([3H]CP 55,940 displacement); conditions: for Selectivity CB1: fold difference between CB1 and CB2 binding, printed in column of receptor with higher affinity, 1.00 in both = same affinity
# T2 construct: host or cells: CHO-K1 (Chinese hamster ovary) cells, stably transfected; membranes prepared in house
# [3] = [3H]CP 55,940 displacement, membranes of CHO-K1 cells expressing human CB2 receptor, read-out: CB2 IC50
# [4] = [3H]CP 55,940 displacement, membranes of CHO-K1 cells expressing human CB1 receptor, read-out: CB1 IC50
# T1 sequence (P34972 whole entry): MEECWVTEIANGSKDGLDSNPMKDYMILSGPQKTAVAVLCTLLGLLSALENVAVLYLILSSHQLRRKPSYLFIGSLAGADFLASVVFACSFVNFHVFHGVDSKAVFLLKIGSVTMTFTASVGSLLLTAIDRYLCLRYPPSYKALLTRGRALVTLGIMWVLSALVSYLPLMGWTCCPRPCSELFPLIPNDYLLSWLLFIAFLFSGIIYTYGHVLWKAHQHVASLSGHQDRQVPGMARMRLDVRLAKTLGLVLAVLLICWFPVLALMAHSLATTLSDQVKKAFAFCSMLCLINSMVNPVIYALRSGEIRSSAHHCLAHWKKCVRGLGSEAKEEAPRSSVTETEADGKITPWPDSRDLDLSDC
# T2 sequence (P21554 whole entry): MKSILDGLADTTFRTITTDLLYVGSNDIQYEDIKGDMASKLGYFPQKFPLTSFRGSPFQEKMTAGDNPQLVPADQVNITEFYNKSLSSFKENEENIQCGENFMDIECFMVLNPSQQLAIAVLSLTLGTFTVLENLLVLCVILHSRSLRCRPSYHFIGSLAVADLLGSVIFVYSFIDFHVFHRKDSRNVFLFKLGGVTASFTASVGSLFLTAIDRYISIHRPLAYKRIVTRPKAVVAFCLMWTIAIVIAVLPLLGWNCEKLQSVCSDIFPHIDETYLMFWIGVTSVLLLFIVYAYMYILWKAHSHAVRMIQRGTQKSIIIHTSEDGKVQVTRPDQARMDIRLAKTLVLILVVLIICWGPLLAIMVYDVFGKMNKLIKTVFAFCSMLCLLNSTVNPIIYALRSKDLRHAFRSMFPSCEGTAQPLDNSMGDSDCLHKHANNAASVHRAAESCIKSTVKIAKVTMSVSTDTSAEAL
Structure (SMILES),"IC50 [1, 3] [nM]",Selectivity CB2 [1],"IC50 [2, 4] [nM]",IC50 [1] [nM],IC50 [2] [nM],Selectivity CB1 [2]
"C=C(C)C1CCC(C)=CC1c1c(OCOCC)cc(C(C)(C)CCCCCC)cc1OCOCC (stereo not drawn) [19′d, 2′,6′-bis(ethoxymethoxy)-5-methyl-4′-(2-methyloctan-2-yl)-2-(prop-1-en-2-yl)-1,2,3,4-tetrahydro-1,1′-biphenyl]",1000 to 9990,2.00,1000 to 9990,–,–,–
"C=C(C)C1CCC(C)=CC1c1c(OCN(C(=O)OC)c2ccccc2)cc(C(C)(C)CCCCCC)cc1OCN(C(=O)OC)c1ccccc1 (stereo not drawn) [20′d, dimethyl (((5′-methyl-4-(2-methyloctan-2-yl)-2′-(prop-1-en-2-yl)-1′,2′,3′,4′-tetrahydro-[1,1′-biphenyl]-2,6-diyl)bis(oxy))bis(methylene))bis(phenylcarbamate)]",1000 to 9990,1.25,> 10000,–,–,–
"C=C(C)C1CCC(C)=CC1c1c(OCOC(=O)C(C)(C)C)cc(C(C)(C)CCCCCC)cc1OCOC(=O)C(C)(C)C (stereo not drawn) [21′d, ((5′-methyl-4-(2-methyloctan-2-yl)-2′-(prop-1-en-2-yl)-1′,2′,3′,4′-tetrahydro-[1,1′-biphenyl]-2,6-diyl)bis(oxy))bis(methylene) bis(2,2-dimethylpropanoate)]",1000 to 9990,13.33,> 10000,–,–,–
"CCCCCc1cc(O)c(-c2cccc(C)c2)c(OCOCCOC)c1 [Compound 2a, 6-((2-methoxyethoxy)methoxy)-3′-methyl-4-pentyl-[1,1′-biphenyl]-2-ol]",50 to 990,11.11,1000 to 9990,–,–,–
"CCCCCc1cc(O)c(C2C=C(C)CCC2)c(OCOCCOC)c1 (stereo not drawn) [Compound 2c, 6-((2-methoxyethoxy)methoxy)-5′-methyl-4-pentyl-1′,2′,3′,4′-tetrahydro-[1,1′-biphenyl]-2-ol]",50 to 990,13.33,1000 to 9990,–,–,–
"C=C(C)C1CCC(C)=CC1c1c(O)cc(CCCCC)cc1OCOCCOC (stereo not drawn) [Compound 2d, 6-((2-methoxyethoxy)methoxy)-5′-methyl-4-pentyl-2′-(prop-1-en-2-yl)-1′,2′,3′,4′-tetrahydro-[1,1′-biphenyl]-2-ol]",1000 to 9990,1.59,1000 to 9990,–,–,–
"CCCCCc1cc(O)c(-c2cccc(C)c2)c(OCOC(=O)OCC)c1 [Compound 5a, ethyl [3-hydroxy-2-(m-tolyl)-5-pentyl-phenoxy]methyl carbonate]",–,7.89,–,50 to 990,1000 to 9990,–
"CCCCCc1cc(O)c(C2C=C(C)CCC2)c(OCOC(=O)OCC)c1 (stereo not drawn) [Compound 5c, ethyl (((6-hydroxy-5′-methyl-4-pentyl-1′,2′,3′,4′-tetrahydro-[1,1′-biphenyl]-2-yl)oxy)methyl) carbonate]",50 to 990,9.09,1000 to 9990,–,–,–
"C=C(C)[C@@H]1CCC(C)=C[C@H]1c1c(O)cc(CCCCC)cc1OCOC(=O)OCC [Compound 5d, ethyl (((6-hydroxy-5′-methyl-4-pentyl-2′-(prop-1-en-2-yl)-1′,2′,3′,4′-tetrahydro-[1,1′-biphenyl]-2-yl)oxy)methyl) carbonate]",–,2.00,–,1000 to 9990,1000 to 9990,–
"CCCCCc1cc(O)c(-c2cccc(C)c2)c(OCOC(=O)C(C)(C)C)c1 [Compound 8a, [3-hydroxy-2-(m-tolyl)-5-pentyl-phenoxy]methyl 2,2-dimethylpropanoate]",< 50,9.39,50 to 990,–,–,–
"CCCCCc1cc(O)c(C2C=C(C)CCC2)c(OCOC(=O)C(C)(C)C)c1 (stereo not drawn) [Compound 8c, ((6-hydroxy-5′-methyl-4-pentyl-1′,2′,3′,4′-tetrahydro-[1,1′-biphenyl]-2-yl)oxy)methyl pivalate]",< 50,8.85,50 to 990,–,–,–
"C=C(C)C1CCC(C)=CC1c1c(O)cc(CCCCC)cc1OCOC(=O)C(C)(C)C (stereo not drawn) [Compound 8d, ((6-hydroxy-5′-methyl-4-pentyl-2′-(prop-1-en-2-yl)-1′,2′,3′,4′-tetrahydro-[1,1′-biphenyl]-2-yl)oxy)methyl pivalate]",50 to 990,1.76,50 to 990,–,–,–
"CCCCCc1cc(O)c(-c2cccc(C)c2)c(OCN(C(=O)OC)c2ccccc2)c1 [Compound 14a, methyl (((6-hydroxy-3′-methyl-4-pentyl-[1,1′-biphenyl]-2-yl)oxy)methyl)(phenyl)carbamate]",50 to 990,9.84,1000 to 9990,–,–,–
"CCCCCc1cc(O)c(C2C=C(C)CCC2)c(OCN(C(=O)OC)c2ccccc2)c1 (stereo not drawn) [Compound 14c, methyl (((6-hydroxy-5′-methyl-4-pentyl-1′,2′,3′,4′-tetrahydro-[1,1′-biphenyl]-2-yl)oxy)methyl)(phenyl)carbamate]",1000 to 9990,–,1000 to 9990,–,–,1.36
"C=C(C)[C@@H]1CCC(C)=C[C@H]1c1c(O)cc(CCCCC)cc1OCN(C(=O)OC)c1ccccc1 [Compound 14d, methyl (((6-hydroxy-5′-methyl-4-pentyl-2′-(prop-1-en-2-yl)-1′,2′,3′,4′-tetrahydro-[1,1′-biphenyl]-2-yl)oxy)methyl)(phenyl)carbamate]",–,–,–,50 to 990,50 to 990,2.53
"CCCCCc1cc(O)c(-c2cccc(C)c2)c(OCOCC)c1 [Compound 17a, 6-(ethoxymethoxy)-3′-methyl-4-pentyl-[1,1′-biphenyl]2-ol]",1000 to 9990,5.20,1000 to 9990,–,–,–
"CCCCCc1cc(O)c(C2C=C(C)CCC2)c(OCOCC)c1 (stereo not drawn) [Compound 17c, 6-(ethoxymethoxy)-5′-methyl-4-pentyl-1′,2′,3′,4′-tetrahydro-[1,1′-biphenyl]-2-ol]",50 to 990,2.47,1000 to 9990,–,–,–
"C=C(C)C1CCC(C)=CC1c1c(O)cc(CCCCC)cc1OCOCC (stereo not drawn) [Compound 17d, 6-(ethoxymethoxy)-5′-methyl-4-pentyl-2′-(prop-1-en-2-yl)-1′,2′,3′,4′-tetrahydro-[1,1′-biphenyl]-2-ol]",50 to 990,1.53,1000 to 9990,–,–,–
"C=C(C)C1CCC(C)=CC1c1c(O)cc(CCCCC)cc1OCOC1CCCCC1 (stereo not drawn) [Compound 18d, 6-((cyclohexyloxy)methoxy)-5′-methyl-4-pentyl-2′-(prop-1-en-2-yl)-1′,2′,3′,4′-tetrahydro-[1,1′-biphenyl]-2-ol]",50 to 990,3.23,1000 to 9990,–,–,–
"C=C(C)C1CCC(C)=CC1c1c(O)cc(C(C)(C)CCCCCC)cc1OCOCC (stereo not drawn) [Compound 19d, 6-(ethoxymethoxy)-5′-methyl-4-(2-methyloctan-2-yl)-2′-(prop-1-en-2-yl)-1′,2′,3′,4′-tetrahydro-[1,1′-biphenyl]-2-ol]",50 to 990,1.83,50 to 990,–,–,–
"C=C(C)C1CCC(C)=CC1c1c(O)cc(C(C)(C)CCCCCC)cc1OCN(C(=O)OC)c1ccccc1 (stereo not drawn) [Compound 20d, methyl (((6-hydroxy-5′-methyl-4-(2-methyloctan-2-yl)-2′-(prop-1-en-2-yl)-1′,2′,3′,4′-tetrahydro-[1,1′-biphenyl]-2-yl)oxy)methyl)(phenyl)carbamate]",50 to 990,1.94,1000 to 9990,–,–,–
"C=C(C)C1CCC(C)=CC1c1c(O)cc(C(C)(C)CCCCCC)cc1OCOC(=O)C(C)(C)C (stereo not drawn) [Compound 21d, ((6-hydroxy-5′-methyl-4-(2-methyloctan-2-yl)-2′-(prop-1-en-2-yl)-1′,2′,3′,4′-tetrahydro-[1,1′-biphenyl]-2-yl)oxy)methyl pivalate]",1000 to 9990,1.25,1000 to 9990,–,–,–
"C=C(C)[C@@H]1CCC(C)=C[C@H]1c1c(O)cc(C(C)(C)CCCCCC)cc1OCOC(=O)OCC [Compound 22d, ethyl (((6-hydroxy-5′-methyl-4-(2-methyloctan-2-yl)-2′-(prop-1-en-2-yl)-1′,2′,3′,4′-tetrahydro-[1,1′-biphenyl]-2-yl)oxy)methyl) carbonate]",< 50,1.67,50 to 990,–,–,–
"C=C(C)[C@@H]1CCC(C)=C[C@H]1c1c(O)cc(CCC)cc1OCOC(=O)C(C)(C)C [Compound 23d, ((6-hydroxy-5′-methyl-2′-(prop-1-en-2-yl)-4-propyl-1′,2′,3′,4′-tetrahydro-[1,1′-biphenyl]-2-yl)oxy)methyl pivalate]",1000 to 9990,2.50,1000 to 9990,–,–,–
"C=C(C)[C@@H]1CCC(C)=C[C@H]1c1c(O)cc(CCC)cc1OCOC(=O)OCC [Compound 24d, ethyl (((6-hydroxy-5′-methyl-2′-(prop-1-en-2-yl)-4-propyl-1′,2′,3′,4′-tetrahydro-[1,1′-biphenyl]-2-yl)oxy)methyl) carbonate]",50 to 990,1.52,1000 to 9990,–,–,–
